From patent US6822100B2 (Bristol-Myers Squibb Company, priority 2001, dated 2004)
Read-outs that look alike come from different tables or passages of the source.

Legend:
[1] = target: T1, human serotonin transporters (Homo sapiens, UniProt P31645); assay: Serotonin Transporter Binding Assay; conditions: HEK-hSERT cell membranes, 1 nM [3H]-citalopram, Cheng and Prusoff
T1 construct: expressed in transfected cells; host or cells: HEK-293 (HEK-hSERT), membrane homogenates
Procedure, shortened: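 Displacement of 1 nM [^3H]-citalopram (1 hr, 25° C, Tris pH 7.4 with NaCl/KCl) from membranes of HEK-293 cells stably expressing human SERT, with bound ligand read after filtration. 10 μM fluoxetine defined non-specific binding. Ki values were derived via Cheng–Prusoff from IC50 displacement-curve midpoints.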

[2] = target: T2, recombinant human dopamine D2L receptors (Homo sapiens, UniProt P14416); assay: Dopamine Binding Assay; conditions: HEK-D2L cell membranes, 150 pM [3H]-spiperone, Cheng and Prusoff
T2 construct: expressed in transfected cells; host or cells: HEK-293 (HEK-D2L), membrane homogenates
T2 sequence (P14416 whole entry): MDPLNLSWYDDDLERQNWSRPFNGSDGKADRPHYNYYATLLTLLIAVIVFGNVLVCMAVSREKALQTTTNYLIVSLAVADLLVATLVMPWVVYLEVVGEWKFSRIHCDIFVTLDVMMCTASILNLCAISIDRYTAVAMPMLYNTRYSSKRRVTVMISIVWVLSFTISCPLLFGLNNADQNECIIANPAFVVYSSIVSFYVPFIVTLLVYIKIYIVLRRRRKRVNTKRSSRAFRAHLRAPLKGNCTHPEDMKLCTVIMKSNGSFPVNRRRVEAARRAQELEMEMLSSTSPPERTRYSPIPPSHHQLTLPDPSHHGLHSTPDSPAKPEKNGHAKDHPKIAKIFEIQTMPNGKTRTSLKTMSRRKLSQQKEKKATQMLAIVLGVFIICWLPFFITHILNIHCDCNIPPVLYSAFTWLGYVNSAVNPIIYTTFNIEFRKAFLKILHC
Procedure: HEK-293 cells that stably express recombinant human dopamine D2L receptors (HEK-D2L cells) were grown at 37° C. in 5% CO2 as a monolayer in medium consisting of EMEM supplemented with 10% fetal bovine serum and G418 sulfate (500 μg/ml). To prepare membranes for radioligand binding experiments, cells were rinsed twice with phosphate-buffered saline (138 mM NaCl, 4.1 mM KCl, 5.1 mM Na2PO4, 1.5 mM KH2PO2 11.1 mM glucose, pH 7.4), and incubated for 5-10 min. at 4° C. in hypotonic lysis buffer consisting of 10 mM Tris (pH 7.4) and 5 mM EDTA. Cells were transferred from plates to polypropylene tubes (16×100 mm), homogenized and centrifuged at 32,000×g for 20 min. Following centrifugation, pellets were resuspended by homogenization in buffer consisting of 50 mM Tris (pH 7.7 at 25° C.) and 1 mM EDTA. Homogenates were stored at −80° C. until needed. On the day of an experiment, homogenates were thawed then centrifuged at 32,000×g for 20 min. Following centrifugation, supernatants were discarded and pellets were resuspended in assay buffer consisting of 50 mM Tris (pH 7.4 at 25° C.), 1 mM EDTA and 6 mM MgCl2. Membrane homogenates (˜5 μg) were incubated with 150 pM [^3H]-spiperone (Amersham Life Science) and increasing concentrations of test compounds for 1.5 hr at 22° C. in a total volume of 400 μl. Reactions were stopped by addition of ice-cold assay buffer and filtration over glass fiber filters (Whatman GFB, pre-soaked in 0.05% polyethylenimine) using a microtitre format Brandel cell harvester. Filters were washed with 3 ml of ice-cold assay buffer. Non-specific binding was defined with 2 μM (+)butaclamol. Ki values were calculated using the method of Cheng and Prusoff (1973). Protein concentrations were determined by the method of Bradford (1976) with BSA as a standard.

T1 sequence (P31645 whole entry): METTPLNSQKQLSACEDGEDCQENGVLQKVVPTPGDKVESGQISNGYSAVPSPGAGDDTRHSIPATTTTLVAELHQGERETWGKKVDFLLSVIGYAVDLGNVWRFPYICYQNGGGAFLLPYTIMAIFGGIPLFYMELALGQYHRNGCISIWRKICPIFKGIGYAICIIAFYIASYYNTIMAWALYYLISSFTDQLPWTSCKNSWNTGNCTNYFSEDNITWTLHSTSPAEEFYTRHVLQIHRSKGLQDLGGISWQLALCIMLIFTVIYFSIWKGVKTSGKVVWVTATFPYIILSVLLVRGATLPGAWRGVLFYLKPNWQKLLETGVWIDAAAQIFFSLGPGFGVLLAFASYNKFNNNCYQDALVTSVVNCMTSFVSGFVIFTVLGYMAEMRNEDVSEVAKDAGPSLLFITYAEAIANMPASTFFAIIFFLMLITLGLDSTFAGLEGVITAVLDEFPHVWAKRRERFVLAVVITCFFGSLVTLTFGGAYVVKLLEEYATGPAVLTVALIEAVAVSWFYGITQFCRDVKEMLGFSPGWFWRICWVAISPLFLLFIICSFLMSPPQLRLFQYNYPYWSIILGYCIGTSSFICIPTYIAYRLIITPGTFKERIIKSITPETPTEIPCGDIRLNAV

CCN(CCNC(=O)OC)C[C@@H]1C[C@H]1c1c[nH]c2ccc(C#N)cc12 (relative stereo) [Example 93, trans-2-[5-Cyanoindol-3-yl]-1-[N,N-ethyl-2-amino(methylcarbamoyl)ethylaminomethyl]-cyclopropane]
Ki ([1]; read-out: SERT Ki): 1 to 10 nM | Ki [2]: > 1000 nM

CCOC(=O)NCCN(CC)C[C@@H]1C[C@H]1c1c[nH]c2ccc(C#N)cc12 (relative stereo) [Example 94, trans-2-[5-Cyanoindol-3-yl]-1-[N,N-ethyl-2-amino(ethylcarbamoyl)ethylaminomethyl]-cyclopropane]
Ki ([1]; read-out: SERT Ki): < 1 nM | Ki [2]: > 1000 nM

CCCOC(=O)NCCN(CC)C[C@@H]1C[C@H]1c1c[nH]c2ccc(C#N)cc12 (relative stereo) [Example 95, trans-2-[5-Cyanoindol-3-yl]-1-[N,N-ethyl-2-amino(propylcarbamoyl)ethylaminomethyl]-cyclopropane]
Ki ([1]; read-out: SERT Ki): 1 to 10 nM | Ki [2]: > 1000 nM

CCN(CCNC(=O)OC(C)C)C[C@@H]1C[C@H]1c1c[nH]c2ccc(C#N)cc12 (relative stereo) [Example 96, trans-2-[5-Cyanoindol-3-yl]-1-[N,N-ethyl-2-amino(isopropylcarbamoyl)ethylaminomethyl]-cyclopropane]
Ki ([1]; read-out: SERT Ki): 1 to 10 nM | Ki [2]: 100 to 1000 nM

CCN(CCCNC(=O)OC)C[C@@H]1C[C@H]1c1c[nH]c2ccc(C#N)cc12 (relative stereo) [Example 97, trans-2-[5-Cyanoindol-3-yl]-1-[N,N-ethyl-2-amino(methylcarbamoyl)propylaminomethyl]-cyclopropane]
Ki ([1]; read-out: SERT Ki): 1 to 10 nM | Ki [2]: 100 to 1000 nM

CCOC(=O)NCCCN(CC)C[C@@H]1C[C@H]1c1c[nH]c2ccc(C#N)cc12 (relative stereo) [Example 98, trans-2-[5-Cyanoindol-3-yl]-1-[N,N-ethyl-2-amino(ethylcarbamoyl)propylaminomethyl]-cyclopropane]
Ki ([1]; read-out: SERT Ki): 1 to 10 nM | Ki [2]: 100 to 1000 nM

CCCOC(=O)NCCCN(CC)C[C@@H]1C[C@H]1c1c[nH]c2ccc(C#N)cc12 (relative stereo) [Example 99, trans-2-[5-Cyanoindol-3-yl]-1-[N,N-ethyl-2-amino(propylcarbamoyl)propylaminomethyl]-cyclopropane]
Ki ([1]; read-out: SERT Ki): 1 to 10 nM | Ki [2]: 100 to 1000 nM

CCN(CCCNC(=O)OC(C)C)C[C@@H]1C[C@H]1c1c[nH]c2ccc(C#N)cc12 (relative stereo) [Example 100, trans-2-[5-Cyanoindol-3-yl]-1-[N,N-ethyl-2-amino(isopropylcarbamoyl)propylaniinomethyl]-cyclopropane]
Ki ([1]; read-out: SERT Ki): 10 to 100 nM | Ki [2]: > 1000 nM

CCCOC(=O)NCCN(C)C[C@@H]1C[C@H]1c1c[nH]c2ccc(F)cc12 (relative stereo) [Example 102]
Ki ([1]; read-out: SERT Ki): 1 to 10 nM | Ki [2]: 100 to 1000 nM

CC(C)OC(=O)NCCN(C)C[C@@H]1C[C@H]1c1c[nH]c2ccc(F)cc12 (relative stereo) [Example 103]
Ki ([1]; read-out: SERT Ki): 1 to 10 nM | Ki [2]: 100 to 1000 nM

COC(=O)NCCCN(C)C[C@@H]1C[C@H]1c1c[nH]c2ccc(F)cc12 (relative stereo) [Example 104, trans-2-[5-Fluoroindol-3-yl]-1-[N,N-methyl-2-amino(methylcarbamoyl)propylaminomethyl]-cyclopropane]
Ki ([1]; read-out: SERT Ki): 10 to 100 nM | Ki [2]: 100 to 1000 nM

CCOC(=O)NCCCN(C)C[C@@H]1C[C@H]1c1c[nH]c2ccc(F)cc12 (relative stereo) [Example 105, trans-2-[5-Fluoroindol-3-yl]-1-[N,N-methyl-2-amino(ethylcarbamoyl)propylaminomethyl]-cyclopropane]
Ki ([1]; read-out: SERT Ki): 10 to 100 nM | Ki [2]: 100 to 1000 nM

CCCOC(=O)NCCCN(C)C[C@@H]1C[C@H]1c1c[nH]c2ccc(F)cc12 (relative stereo) [Example 106, trans-2-[5-Fluoroindol-3-yl]-1-[N,N-methyl-2-amino(propylcarbamoyl)propylaminomethyl]-cyclopropane]
Ki ([1]; read-out: SERT Ki): 10 to 100 nM | Ki [2]: 100 to 1000 nM

CC(C)OC(=O)NCCCN(C)C[C@@H]1C[C@H]1c1c[nH]c2ccc(F)cc12 (relative stereo) [Example 107, trans-2-[5-Fluoroindol-3-yl]-1-[N,N-methyl-2-amino(isopropylcarbamoyl)propylaminomethyl]-cyclopropane]
Ki ([1]; read-out: SERT Ki): 10 to 100 nM | Ki [2]: 100 to 1000 nM

CCN(CCNC(=O)OC)C[C@@H]1C[C@H]1c1c[nH]c2ccc(F)cc12 (relative stereo) [Example 108, trans-1-[N,N-Ethyl-2-amino(methylcarbamoyl)ethylaminomethyl]-2-[5-fluoroindol-3-yl]-cyclopropane]
Ki ([1]; read-out: SERT Ki): 10 to 100 nM | Ki [2]: 100 to 1000 nM

CCOC(=O)NCCN(CC)C[C@@H]1C[C@H]1c1c[nH]c2ccc(F)cc12 (relative stereo) [Example 109]
Ki ([1]; read-out: SERT Ki): 1 to 10 nM | Ki [2]: 100 to 1000 nM

CCCOC(=O)NCCN(CC)C[C@@H]1C[C@H]1c1c[nH]c2ccc(F)cc12 (relative stereo) [Example 110, trans-1-[N,N-Ethyl-2-amino(propylcarbamoyl)ethylaminomethyl]-2-[5-fluoroindol-3-yl]-cyclopropane]
Ki ([1]; read-out: SERT Ki): 1 to 10 nM | Ki [2]: 100 to 1000 nM

CCN(CCNC(=O)OC(C)C)C[C@@H]1C[C@H]1c1c[nH]c2ccc(F)cc12 (relative stereo) [Example 111]
Ki ([1]; read-out: SERT Ki): 1 to 10 nM | Ki [2]: 10 to 100 nM

CCN(CCCNC(=O)OC)C[C@@H]1C[C@H]1c1c[nH]c2ccc(F)cc12 (relative stereo) [Example 112, trans-1-[N,N-Ethyl-2-amino(methylcarbamoyl)propylaminomethyl]-2-[5-fluoroindol-3-yl]-cyclopropane]
Ki ([1]; read-out: SERT Ki): 10 to 100 nM | Ki [2]: 100 to 1000 nM

CCOC(=O)NCCCN(CC)C[C@@H]1C[C@H]1c1c[nH]c2ccc(F)cc12 (relative stereo) [Example 113]
Ki ([1]; read-out: SERT Ki): 10 to 100 nM | Ki [2]: 100 to 1000 nM

CCCOC(=O)NCCCN(CC)C[C@@H]1C[C@H]1c1c[nH]c2ccc(F)cc12 (relative stereo) [Example 114, trans-1-[N,N-Ethyl-2-amino(propylcarbamoyl)propylaminomethyl]-2-[5-fluoroindol-3-yl]-cyclopropane]
Ki ([1]; read-out: SERT Ki): 10 to 100 nM | Ki [2]: 100 to 1000 nM

CCN(CCCNC(=O)OC(C)C)C[C@@H]1C[C@H]1c1c[nH]c2ccc(F)cc12 (relative stereo) [Example 115, trans-1-[N,N-Ethyl-2-amino(isopropylcarbamoyl)propylaminomethyl]-2-[5-fluoroindol-3-yl]-cyclopropane]
Ki ([1]; read-out: SERT Ki): 10 to 100 nM | Ki [2]: 100 to 1000 nM

N#Cc1ccc2[nH]cc([C@@H]3C[C@H]3CCCN3CCCC3)c2c1 (relative stereo) [Example 179, Trans-2-[5-cyanoindol-3-yl]-1-(3-(1-pyrrolidino)propyl)cyclopropane]
Ki ([1]; read-out: SERT Ki): 10 to 100 nM | Ki [2]: 100 to 1000 nM

Fc1ccc2[nH]cc([C@@H]3C[C@@H]3CN3CCCC3)c2c1 (relative stereo) [Example 185, cis-1-(1-pyrrolidino)-2-[5-fluoroindol-3-yl]-cyclopropane]
Ki ([1]; SERT Ki (nM)): 10 to 100 nM | Ki [2]: > 1000 nM

CN(C)CC1CC1c1c[nH]c2ccc(C#N)cc12 (single isomer, unassigned) [Example 117, Cis-2-[5-Cyanoindol-3-yl]-1-(N,N-dimethylaminomethyl)cyclopropane]
Ki ([1]; SERT Ki (nM)): 1 to 10 nM | Ki [2]: > 1000 nM

CN(C)CC1CC1c1c[nH]c2ccc(F)cc12 (single isomer, unassigned) [Example 118, Cis-2-[5-Fluoroindol-3-yl]-1-(N,N-dimethylaminomethyl)cyclopropane]
Ki ([1]; SERT Ki (nM)): 10 to 100 nM | Ki [2]: > 1000 nM

CC([C@@H]1C[C@H]1c1c[nH]c2ccc(C#N)cc12)N(C)C (single isomer, unassigned) [Example 122A, trans-3-[2-(1-Dimethylamino-ethyl)-cyclopropyl]-1H-indole-5-carbonitrile]
Ki ([1]; SERT Ki (nM)): < 1 nM | Ki [2]: > 1000 nM

CC([C@@H]1C[C@H]1c1c[nH]c2ccc(C#N)cc12)N(C)C (single isomer, unassigned) [Example 122B, trans-3-[2-(1-Dimethylamino-ethyl)-cyclopropyl]-1H-indole-5-carbonitrile]
Ki ([1]; SERT Ki (nM)): 1 to 10 nM | Ki [2]: > 1000 nM

CN(C)CC1CC1c1c[nH]c2ccc(C#N)cc12 (single isomer, unassigned) [Example 129a, Cis-2-[5-Cyanoindol-3-yl]-1-(N,N-dimethylaminomethyl)cyclopropane]
Ki ([1]; SERT Ki (nM)): 10 to 100 nM | Ki [2]: > 1000 nM
